# According to patent US9247732B2, “Agrochemical formulations containing a compatibility agent” (priority 2011, dated 2016):
# Assay: Tank-mix compatibility test of dodine 400 SC with another pesticide or adjuvant
# Assay type: physicochemical
# Conditions: dodine 400 SC 1.25 l/200 l water plus other pesticide or adjuvant, observed after mixing for 30 minutes
# Description: Test protocols for evaluating the compatibility of pesticide active ingredients and adjuvants are readily available and known to a person skilled in the art. A method suitable for use in the present invention is as follows: fill a 250 ml beaker with 200 ml of well water (temperature 15-17° C., water hardness 8° dH corresponding to 80 mg calcium oxide/l). […] Add a magnetic stirrer to the beaker. Stir the suspension for approximately 5 minutes at a speed of rotation of 700 rotations per minute. Add a mixing partner, such as an adjuvant or second plant protection product to the suspension. Stir the suspension for an additional 15 minutes. Stop stirring when a total stirring time of 20 minutes is obtained. Let the suspension stand unstirred for a few minutes. Then check for any separation, sediment, crystallization or flocculation. Note down the results of the visual observation. Stir the suspension for a further 20 minutes. Stop the stirring. After 2 hours have lapsed assess the compatibility for a second time. Upon finishing the second observation, pour the whole suspension over a 100 μm sieve. Note down if residue is present on the sieve.
# Tank-mixes comprising dodine without acetate were prepared. […] Mixing was stopped.
# As a comparison, the same tank-mixes were prospered, this time comprising dodine with acetate (A′-E′). […] Mixing was stopped after 30 minutes.
# [1] = with sodium acetate 0.36 kg/200 l
SMILES,Compatibility test [1],Compatibility test (without compatibility agent)
CCC(C)(C)C(=O)OC1=C(c2ccc(Cl)cc2Cl)C(=O)OC12CCCCC2 [spirodiclofen],improved the compatibility,not possible due to incompatibility problems
"COc1cccc(C(=O)NN(C(=O)c2cc(C)cc(C)c2)C(C)(C)C)c1C [methoxyfenozide, benzoic acid, 3-methoxy-2-methyl-, 2-(3,5-dimethylbenzoyl)-2-(1,1-dimethylethyl)hydrazide]",improved the compatibility,not possible due to incompatibility problems
"Cc1cc(C)nc(Nc2ccccc2)n1 [pyrimethanil, N-(4,6-dimethylpyrimidin-2-yl)aniline]",improved the compatibility,not possible due to incompatibility problems
